Species: Rattus norvegicus
Assay: Open TG-GATES - Regimen: Daily Repeat
Assay type: toxicity, organism-based, Sprague-Dawley
Design: regimen Daily Repeat, gender Male, age 6 weeks
Details: in vivo, po, 0 mg/kg, route gavage, dose level Control; for APTT / Bas / Eos / Fbg / Hb / Ht / Lym / MCH / MCHC / MCV / Mono / Neu / PT / Plat / RBC / Ret / WBC: tissue Blood; for KIDNEY_L / KIDNEY_R / KIDNEY_TOTAL: tissue Kidney; for LIVER: tissue Liver; for A/G / ALP / ALT / AST / BUN / CRE / Ca / Cl / DBIL / GLC / IP / K / LDH / Na / PL / RALB / TBIL / TC / TG / TP / gamma-GTP: tissue Plasma

Cc1cccc(Nc2ccccc2C(=O)O)c1C [MEFENAMIC ACID]
TERMINAL_BW (72 h, time 3 day): 233.8 g
APTT (72 h, time 3 day): 19.9 s
Bas (72 h, time 3 day): 0%
Eos (72 h, time 3 day): 0.8%
Fbg (72 h, time 3 day): 223.4 mg/dL
Hb (72 h, time 3 day): 13.4 g/dL
Ht (72 h, time 3 day): 38.3%
Lym (72 h, time 3 day): 76%
MCH (72 h, time 3 day): 21.9 pg
MCHC (72 h, time 3 day): 35.1%
MCV (72 h, time 3 day): 62.4 fL
Mono (72 h, time 3 day): 2.6%
Neu (72 h, time 3 day): 18.2%
PT (72 h, time 3 day): 11.9 s
Plat (72 h, time 3 day): 118.8 x10_4/uL
RBC (72 h, time 3 day): 614 x10_4/ul
Ret (72 h, time 3 day): 5.7%
WBC (72 h, time 3 day): 105.7 x10_2/uL
KIDNEY_L (72 h, time 3 day): 1 g
KIDNEY_R (72 h, time 3 day): 1 g
KIDNEY_TOTAL (72 h, time 3 day): 2 g
LIVER (72 h, time 3 day): 11.2 g
A/G (72 h, time 3 day): 1.6
ALP (72 h, time 3 day): 1029.8 IU/L
ALT (72 h, time 3 day): 35.4 IU/L
AST (72 h, time 3 day): 64.2 IU/L
BUN (72 h, time 3 day): 14.4 mg/dL
CRE (72 h, time 3 day): 0.4 mg/dL
Ca (72 h, time 3 day): 11 mg/dL
Cl (72 h, time 3 day): 103.2 meq/L
DBIL (72 h, time 3 day): 0.088 mg/dL
GLC (72 h, time 3 day): 193.2 mg/dL
IP (72 h, time 3 day): 7.6 mg/dL
K (72 h, time 3 day): 4.2 meq/L
LDH (72 h, time 3 day): 173 IU/L
Na (72 h, time 3 day): 141 meq/L
PL (72 h, time 3 day): 143.6 mg/dL
RALB (72 h, time 3 day): 3.5 g/dL
TBIL (72 h, time 3 day): 0.1 mg/dL
TC (72 h, time 3 day): 70.6 mg/dL
TG (72 h, time 3 day): 87.4 mg/dL
TP (72 h, time 3 day): 5.6 g/dL
gamma-GTP (72 h, time 3 day): 1 IU/L
TERMINAL_BW ([…], time 7 day): 261.7 g
TERMINAL_BW ([…], time 14 day): 316.1 g
TERMINAL_BW ([…], time 28 day): 409.8 g
APTT ([…], time 7 day): 18.5 s
Bas ([…], time 7 day): 0%
Eos ([…], time 7 day): 0.8%
Fbg ([…], time 7 day): 219.2 mg/dL
Hb ([…], time 7 day): 13.8 g/dL
Ht ([…], time 7 day): 39.1%
Lym ([…], time 7 day): 81.4%
MCH ([…], time 7 day): 21.3 pg
MCHC ([…], time 7 day): 35.5%
MCV ([…], time 7 day): 60.1 fL
Mono ([…], time 7 day): 2.8%
Neu ([…], time 7 day): 13.4%
PT ([…], time 7 day): 11.7 s
Plat ([…], time 7 day): 121.6 x10_4/uL
RBC ([…], time 7 day): 650.6 x10_4/ul
Ret ([…], time 7 day): 4.7%
WBC ([…], time 7 day): 105 x10_2/uL
APTT ([…], time 14 day): 20.6 s
Bas ([…], time 14 day): 0%
Eos ([…], time 14 day): 1%
Fbg ([…], time 14 day): 228.8 mg/dL
Hb ([…], time 14 day): 14.3 g/dL
Ht ([…], time 14 day): 40.5%
Lym ([…], time 14 day): 76.4%
MCH ([…], time 14 day): 21.4 pg
MCHC ([…], time 14 day): 35.2%
MCV ([…], time 14 day): 60.8 fL
Mono ([…], time 14 day): 2.2%
Neu ([…], time 14 day): 18.6%
PT ([…], time 14 day): 12.1 s
Plat ([…], time 14 day): 108.8 x10_4/uL
RBC ([…], time 14 day): 667.4 x10_4/ul
Ret ([…], time 14 day): 4.2%
WBC ([…], time 14 day): 111.1 x10_2/uL
APTT ([…], time 28 day): 19.1 s
Bas ([…], time 28 day): 0%
Eos ([…], time 28 day): 1%
Fbg ([…], time 28 day): 249 mg/dL
Hb ([…], time 28 day): 15.3 g/dL
Ht ([…], time 28 day): 43.8%
Lym ([…], time 28 day): 81.4%
MCH ([…], time 28 day): 20.1 pg
MCHC ([…], time 28 day): 35%
MCV ([…], time 28 day): 57.4 fL
Mono ([…], time 28 day): 2%
Neu ([…], time 28 day): 14.4%
PT ([…], time 28 day): 11.8 s
Plat ([…], time 28 day): 111.8 x10_4/uL
RBC ([…], time 28 day): 763.4 x10_4/ul
Ret ([…], time 28 day): 2.7%
WBC ([…], time 28 day): 91.7 x10_2/uL
KIDNEY_L ([…], time 7 day): 1.1 g
KIDNEY_R ([…], time 7 day): 1.1 g
KIDNEY_TOTAL ([…], time 7 day): 2.2 g
KIDNEY_L ([…], time 14 day): 1.2 g
KIDNEY_R ([…], time 14 day): 1.2 g
KIDNEY_TOTAL ([…], time 14 day): 2.4 g
KIDNEY_L ([…], time 28 day): 1.4 g
KIDNEY_R ([…], time 28 day): 1.4 g
KIDNEY_TOTAL ([…], time 28 day): 2.9 g
LIVER ([…], time 7 day): 11.4 g
LIVER ([…], time 14 day): 13.7 g
LIVER ([…], time 28 day): 17.3 g
A/G ([…], time 7 day): 1.5
ALP ([…], time 7 day): 908 IU/L
ALT ([…], time 7 day): 38.8 IU/L
AST ([…], time 7 day): 69.4 IU/L
BUN ([…], time 7 day): 14.8 mg/dL
CRE ([…], time 7 day): 0.4 mg/dL
Ca ([…], time 7 day): 10.6 mg/dL
Cl ([…], time 7 day): 103.4 meq/L
DBIL ([…], time 7 day): 0.07 mg/dL
GLC ([…], time 7 day): 229.4 mg/dL
IP ([…], time 7 day): 6.9 mg/dL
K ([…], time 7 day): 3.8 meq/L
LDH ([…], time 7 day): 181 IU/L
Na ([…], time 7 day): 140.4 meq/L
PL ([…], time 7 day): 135.4 mg/dL
RALB ([…], time 7 day): 3.3 g/dL
TBIL ([…], time 7 day): 0.1 mg/dL
TC ([…], time 7 day): 71 mg/dL
TG ([…], time 7 day): 68.2 mg/dL
TP ([…], time 7 day): 5.6 g/dL
gamma-GTP ([…], time 7 day): 1 IU/L
A/G ([…], time 14 day): 1.5
ALP ([…], time 14 day): 880 IU/L
ALT ([…], time 14 day): 31 IU/L
AST ([…], time 14 day): 58.8 IU/L
BUN ([…], time 14 day): 16 mg/dL
CRE ([…], time 14 day): 0.5 mg/dL
Ca ([…], time 14 day): 10.5 mg/dL
Cl ([…], time 14 day): 103 meq/L
DBIL ([…], time 14 day): 0.092 mg/dL
GLC ([…], time 14 day): 233.6 mg/dL
IP ([…], time 14 day): 7.1 mg/dL
K ([…], time 14 day): 3.9 meq/L
LDH ([…], time 14 day): 154.4 IU/L
Na ([…], time 14 day): 140.6 meq/L
PL ([…], time 14 day): 142.8 mg/dL
RALB ([…], time 14 day): 3.4 g/dL
TBIL ([…], time 14 day): 0.2 mg/dL
TC ([…], time 14 day): 73.4 mg/dL
TG ([…], time 14 day): 101.4 mg/dL
TP ([…], time 14 day): 5.6 g/dL
gamma-GTP ([…], time 14 day): 0.8 IU/L
A/G ([…], time 28 day): 1.3
ALP ([…], time 28 day): 665 IU/L
ALT ([…], time 28 day): 33.4 IU/L
AST ([…], time 28 day): 56.6 IU/L
BUN ([…], time 28 day): 18.8 mg/dL
CRE ([…], time 28 day): 0.5 mg/dL
Ca ([…], time 28 day): 10.6 mg/dL
Cl ([…], time 28 day): 103.4 meq/L
DBIL ([…], time 28 day): 0.1 mg/dL
GLC ([…], time 28 day): 242.8 mg/dL
IP ([…], time 28 day): 7 mg/dL
K ([…], time 28 day): 3.8 meq/L
LDH ([…], time 28 day): 111.2 IU/L
Na ([…], time 28 day): 140.6 meq/L
PL ([…], time 28 day): 151.8 mg/dL
RALB ([…], time 28 day): 3.6 g/dL
TBIL ([…], time 28 day): 0.2 mg/dL
TC ([…], time 28 day): 74.2 mg/dL
TG ([…], time 28 day): 141.4 mg/dL
TP ([…], time 28 day): 6.2 g/dL
gamma-GTP ([…], time 28 day): 1.6 IU/L
